Measurements from paper PMC12155335, “Phenethyl Acetate as an Agonist of Insect Odorant Receptor Co-Receptor (Orco): Molecular Mechanisms and Functional Insights” (International Journal of Molecular Sciences, 2025).

Assays:
Or1a/Orco = molecular target: T1, Or1a/Orco (Drosophila melanogaster, UniProt Q9VNB5+Q9W5G6); assay: Two-electrode voltage-clamp in Xenopus laevis oocytes expressing Or1a/Orco; assay type: cell-based, D. melanogaster; details: TEVC; for odorant-evoked inward current (activation): −80 mV, octanol 30 μM, PA 10 μM (Figure 2A)
T1 construct: expressed in transfected cells; host or cells: Xenopus laevis oocytes injected with in vitro transcribed mRNA (pGEM-HE)
T1 sequence (Q9W5G6 1-392): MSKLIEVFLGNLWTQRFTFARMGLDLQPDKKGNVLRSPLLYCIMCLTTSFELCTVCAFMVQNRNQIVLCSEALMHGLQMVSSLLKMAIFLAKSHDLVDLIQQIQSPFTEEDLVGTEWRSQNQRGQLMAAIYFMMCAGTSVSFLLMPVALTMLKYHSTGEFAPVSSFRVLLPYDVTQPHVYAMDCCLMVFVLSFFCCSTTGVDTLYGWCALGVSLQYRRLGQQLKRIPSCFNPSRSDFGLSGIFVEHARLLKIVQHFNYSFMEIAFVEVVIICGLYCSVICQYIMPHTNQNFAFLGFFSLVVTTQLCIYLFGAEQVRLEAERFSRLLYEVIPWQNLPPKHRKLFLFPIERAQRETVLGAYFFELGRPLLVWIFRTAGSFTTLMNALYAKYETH
T1 sequence (Q9VNB5 1-486): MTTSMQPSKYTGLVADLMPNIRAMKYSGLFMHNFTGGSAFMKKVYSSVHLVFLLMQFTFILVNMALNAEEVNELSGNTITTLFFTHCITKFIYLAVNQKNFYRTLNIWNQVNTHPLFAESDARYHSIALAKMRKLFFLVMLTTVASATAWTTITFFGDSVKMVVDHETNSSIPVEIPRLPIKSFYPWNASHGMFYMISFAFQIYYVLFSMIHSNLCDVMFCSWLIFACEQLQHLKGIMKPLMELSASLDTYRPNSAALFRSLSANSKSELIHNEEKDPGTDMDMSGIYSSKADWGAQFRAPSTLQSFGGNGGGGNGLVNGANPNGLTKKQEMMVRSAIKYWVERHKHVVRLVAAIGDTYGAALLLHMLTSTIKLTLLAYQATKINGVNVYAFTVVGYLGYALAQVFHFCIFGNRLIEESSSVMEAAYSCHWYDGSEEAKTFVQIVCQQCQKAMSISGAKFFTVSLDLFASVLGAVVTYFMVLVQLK
Description: (§1) The D. melanogaster Or subunits (Or1a, Or24a, and Or35a) (FlyBase IDs: FBgn0029521, FBgn0026394, and FBgn0028946) and the odorant receptor co-receptor Orco (FlyBase ID: FBgn0037324) were synthesized as complementary DNA by Cosmogenetech (Seoul, Republic of Korea). The synthesized cDNA constructs were subcloned into the pGEM-HE expression vector. Plasmid transformation was performed using Escherichia coli DH5α competent cells, and recombinant plasmids were isolated using a miniprep protocol. The integrity of the cloned sequences was confirmed by Sanger sequencing. For complementary RNA synthesis, D. melanogaster Or1a, Or24a, Or35a, and Orco cDNA were linearized with appropriate restriction endonucleases, and digestion efficiency was verified via agarose gel electrophoresis. In vitro transcription was carried out using T7 RNA polymerase (mMESSAGE mMACHINE T7 Transcription Kit; Thermo Fisher Scientific, Waltham, MA, USA). The resulting mRNA was precipitated, resuspended in DEPC-treated water, and stored at −80 °C for subsequent experiments.
(§2) Xenopus laevis frogs were obtained from the Korean Xenopus Resource Center for Research (KXRCR000001, Gangwon, Republic of Korea). The isolation and maintenance of Xenopus oocytes followed the standardized protocols described by Pyeon et al. and complied with the ethical guidelines of Chonnam National University (CNU IACUC-YB-2016-07, July 2016). Microinjection of 50 ng of mRNA per oocyte was performed using a nanoliter injector (Drummond Scientific, Vernon Hills, IL, USA). Following injection, the oocytes were incubated at 18 °C in a shaking incubator to facilitate optimal protein expression before electrophysiological recordings.
(§3) The two-electrode voltage-clamp (TEVC) experiments were conducted following established protocols as described in Lee et al.. […]
(§4) All values are presented as the mean ± S.E.M. (standard error of the mean) following data analysis. Data collected using the two-electrode voltage-clamp technique were analyzed with SigmaPlot 10.0 software. […]

Or24a/Orco = molecular target: T2, Or24a/Orco (Drosophila melanogaster, UniProt P81913+Q9VNB5); assay: Two-electrode voltage-clamp in Xenopus laevis oocytes expressing Or24a/Orco; assay type: cell-based, D. melanogaster; details: TEVC; for odorant-evoked inward current (activation): −80 mV, octanol 10 μM, PA 10 μM (Figure 2B)
T2 construct: expressed in transfected cells; host or cells: Xenopus laevis oocytes injected with in vitro transcribed mRNA (pGEM-HE)
T2 sequence (P81913 1-398): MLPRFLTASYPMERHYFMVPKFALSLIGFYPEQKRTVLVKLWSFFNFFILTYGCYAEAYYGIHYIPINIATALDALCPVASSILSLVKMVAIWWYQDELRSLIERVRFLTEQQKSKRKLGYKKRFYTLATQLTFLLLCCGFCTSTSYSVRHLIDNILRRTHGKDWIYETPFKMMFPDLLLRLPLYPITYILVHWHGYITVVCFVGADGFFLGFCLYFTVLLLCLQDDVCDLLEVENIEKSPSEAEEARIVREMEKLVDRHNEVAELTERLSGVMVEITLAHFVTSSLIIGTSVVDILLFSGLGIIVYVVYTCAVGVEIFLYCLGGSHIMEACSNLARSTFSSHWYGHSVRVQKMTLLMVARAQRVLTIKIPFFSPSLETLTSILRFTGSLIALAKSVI
T2 sequence (Q9VNB5 1-486): T1 sequence (Q9VNB5 1-486)
Description: as §1, §2, §3, §4

Or35a/Orco = molecular target: T3, Or35a/Orco (Drosophila melanogaster, UniProt Q9V3Q2+Q9VNB5); assay: Two-electrode voltage-clamp in Xenopus laevis oocytes expressing Or35a/Orco; assay type: cell-based, D. melanogaster; details: TEVC; for odorant-evoked inward current (activation): −80 mV, octanol 10 μM, PA 10 μM (Figure 2C)
T3 construct: expressed in transfected cells; host or cells: Xenopus laevis oocytes injected with in vitro transcribed mRNA (pGEM-HE)
T3 sequence (Q9V3Q2 1-409): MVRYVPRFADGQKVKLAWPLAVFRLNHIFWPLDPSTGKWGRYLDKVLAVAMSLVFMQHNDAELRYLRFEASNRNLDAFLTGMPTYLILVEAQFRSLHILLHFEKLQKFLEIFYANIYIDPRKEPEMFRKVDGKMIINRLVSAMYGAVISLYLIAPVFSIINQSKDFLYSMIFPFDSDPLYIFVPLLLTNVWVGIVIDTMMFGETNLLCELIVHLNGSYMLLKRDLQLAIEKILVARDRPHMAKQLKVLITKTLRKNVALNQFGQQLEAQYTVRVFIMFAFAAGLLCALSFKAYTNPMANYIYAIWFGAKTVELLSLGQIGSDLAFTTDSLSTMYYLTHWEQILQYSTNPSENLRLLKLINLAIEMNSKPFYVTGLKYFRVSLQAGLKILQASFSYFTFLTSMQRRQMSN
T3 sequence (Q9VNB5 1-486): T1 sequence (Q9VNB5 1-486)
Description: as §1, §2, §3, §4

Orco homomers = molecular target: T4, Orco homomers (Drosophila melanogaster, UniProt Q9VNB5); assay: Two-electrode voltage-clamp in Xenopus laevis oocytes expressing Orco homomers; assay type: cell-based; details: for odorant-evoked inward current (activation): Orco alone, −80 mV, octanol 10 μM, PA 10 μM (Figure 2D)
T4 construct: expressed in transfected cells; host or cells: Xenopus laevis oocytes injected with Orco mRNA
T4 sequence (Q9VNB5 1-486): T1 sequence (Q9VNB5 1-486)
Description: as §1, §2
(§5) The two-electrode voltage-clamp (TEVC) experiments were conducted following established protocols as described in Lee et al.. This methodology ensures the accurate measurement of odorant receptor activation and has been widely used in previous studies on insect olfactory receptors. The molecular interaction between the odorant receptor (Or) and its ligand was examined using Or-expressing oocytes. Electrophysiological recordings were conducted with a two-electrode voltage-clamp system (OC-725C; Warner Instruments, Hamden, CT, USA) and digitized using a Digidata acquisition system (1322A; Molecular Devices, Sunnyvale, CA, USA). The oocyte membrane potential was clamped at −80 mV. Stock solutions of each compound were prepared by dissolving them in ND96 buffer (58.44 mM NaCl, 2 mM KCl, 1 mM MgCl2, 1.8 mM CaCl2, 5 mM HEPES, pH of 7.4) at the appropriate concentrations before use. […]
as §4

W146A Orco = W146A Orco (Drosophila melanogaster, UniProt Q9VNB5, W150A); assay: Two-electrode voltage-clamp, W146A mutant Orco; assay type: cell-based, D. melanogaster
W146A Orco, sequence (Q9VNB5 whole entry W150A): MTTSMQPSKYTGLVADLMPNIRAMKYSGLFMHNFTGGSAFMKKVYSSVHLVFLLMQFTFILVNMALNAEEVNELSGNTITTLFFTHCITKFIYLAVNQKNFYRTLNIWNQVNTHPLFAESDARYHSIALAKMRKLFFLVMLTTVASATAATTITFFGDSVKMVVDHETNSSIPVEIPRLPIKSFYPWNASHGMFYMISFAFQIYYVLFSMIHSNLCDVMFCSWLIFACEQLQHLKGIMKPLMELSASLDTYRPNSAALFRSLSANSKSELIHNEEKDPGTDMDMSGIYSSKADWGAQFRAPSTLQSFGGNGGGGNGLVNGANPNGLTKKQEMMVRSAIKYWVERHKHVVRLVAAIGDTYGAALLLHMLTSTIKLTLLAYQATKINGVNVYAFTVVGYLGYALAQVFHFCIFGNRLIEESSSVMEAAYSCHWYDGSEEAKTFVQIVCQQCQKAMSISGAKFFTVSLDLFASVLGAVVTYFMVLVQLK
Description: as §2, §3
(§6) To validate the potential binding sites predicted by 3D protein–ligand docking simulations, molecular characterization was conducted through site-directed mutagenesis. […] The effect of these mutations on PA-binding affinity was evaluated through two-electrode voltage-clamp recordings.
as §4

E153A Orco = E153A Orco (Drosophila melanogaster, UniProt Q9VNB5); assay: Two-electrode voltage-clamp, E153A mutant Orco; assay type: cell-based, D. melanogaster; details: TEVC
Description: as §2, §3, §6, §4

[1] = tested on: double mutation (W146A + E153A) Orco; assay: Two-electrode voltage-clamp, double-mutant Orco; assay type: cell-based, D. melanogaster; details: TEVC (Figure 5)
Description: as §2, §3, §6, §4

uninjected oocytes = assay: Two-electrode voltage-clamp control on uninjected oocytes; assay type: cell-based, Xenopus laevis; details: control experiment, TEVC
Description: as §2
as §5, with “mV.” for “mV. Stock solutions of each compound were prepared by dissolving them in ND96 buffer (58.44 mM NaCl, 2 mM KCl, 1 mM MgCl2, 1.8 mM CaCl2, 5 mM HEPES, pH of 7.4) at the appropriate concentrations before use.”

[2] = tested on: Or1a, Or24a, and Or35a co-expressed with mutant Orco; assay: Two-electrode voltage-clamp, Or1a, Or24a, Or35a co-expressed with mutant Orco; assay type: cell-based, D. melanogaster; details: TEVC, 10 µM octanol, mutant Orco co-expressed with Ors
Description: as §2
The two-electrode voltage-clamp (TEVC) experiments were conducted following established protocols as described in Lee et al.. This methodology ensures the accurate measurement of odorant receptor activation and has been widely used in previous studies on insect olfactory receptors. The molecular interaction between the odorant receptor (Or) and its ligand was examined using Or-expressing oocytes. […]
as §6

[3] = Xenopus oocytes, holding potential −80 mV, mean ± SEM, read-out: half-maximal effective concentration (EC50)

SMILES	EC50 (Or1a/Orco; [3]) [µM]	odorant-evoked inward current (activation) (Or1a/Orco)	EC50 (Or24a/Orco; [3]) [µM]	odorant-evoked inward current (activation) (Or24a/Orco)	EC50 (Or35a/Orco; [3]) [µM]	odorant-evoked inward current (activation) (Or35a/Orco)	odorant-evoked inward current (activation) (Orco homomers; TEVC)	voltage dependence of activation (current–voltage relationship) (Orco homomers; voltage ramps, PA 0.3 µM and 3 µM, Orco homomeric receptor (Figure 3D))	EC50 (Orco homomers; wild-type Orco homomers, TEVC, Xenopus oocytes, holding potential −80 mV, mean ± SEM, read-out: half-maximal effective concentration (EC50)) [µM]	EC50 (W146A Orco) [µM]	PA-induced currents versus wild type (W146A Orco; single mutation W146A, TEVC, 10 µM PA (Figure 5))	EC50 (E153A Orco; E153A Orco homomers, Xenopus oocytes, −80 mV) [µM]	PA-induced currents versus wild type (E153A Orco; single mutation E153A, 10 µM PA (Figure 5))	PA activation versus wild type [1]	effect on uninjected oocytes (uninjected oocytes)	activation by octanol with mutant Orco [2]
CC(=O)OCCc1ccccc1 [PA, phenethyl acetate]	2.1 ± 1.2	induced inward currents	2.8 ± 0.2	induced inward currents	5.9 ± 1.1	induced inward currents	induced inward currents	voltage-independent activation	0.4 ± 0.2	17.9 ± 2.1	significantly reduced	12.8 ± 1.9	significantly reduced	nearly abolished	no effect	–
CCCCCCCCO [octanol, reference compound]	–	induced robust inward currents	–	induced robust inward currents	–	induced robust inward currents	failed to activate	–	–	–	–	–	–	–	–	remained consistent
